We go through 7 compounds from patent publication US11806364B2, “Method for producing myeloid-derived suppressor cells, myeloid-derived suppressor cells produced thereby, and methods thereof” (Industry-Academic Cooperation Foundation, Yonsei University, priority 2017, dated 2023).

For assay [1], the system named is bone marrow cells. Kind of assay: Cytokines induced at early differentiation stages after TLR stimulation. It counts as cell-based. The settings on record: for cytokines induced at early differentiation stages: 8, 18, and 36 hours after stimulation with TLR agonist; for IFN-γ, IL-15, IL-1β, TGF-β, IL-4, IL-12p70, IL-10, and FLT2L induction: not shown by data. As for the experimental part: Hereinafter, experiments were conducted assuming that for respective M-MDSCs induced by differentiation upon treatment with a TLR2 or TLR9 agonist, differences in phenotype, T cell inhibition capacity, regulatory T cell formation capacity, and differentiation into dendritic cells are due to different cytokine secretion induced by each TLR stimulation. Therefore, cytokines induced at early differentiation stages (8, 18, and 36 hours after stimulation with TLR agonist) after treatment of bone marrow cells with a TLR2 or TLR9 agonist were analyzed.

Assay [2] relates to bone marrow cells. As to the kind of experiment: Ly6G/Ly6C expression patterns in C57BL/6 and MyD88^−/− mice. It counts as cell-based, C57BL/6 mice and C57BL/6 MyD88^−/− mice. The settings on record: MyD88 dependence study, 3 method. As to the method:
In order to identify whether differentiation into respective MDSCs' subtypes is induced in a MyD88-dependent manner, C57BL/6 mice and C57BL/6 MyD88^−/− mice were treated in the same manner as the 3 method in Example 1, and then expression patterns of Ly6G and Ly6C were identified in the same manner as in Example 4 (FIG. 13).

In assay [3] the test system is bone marrow cells. Kind of assay: Proportion of CD11c+MHC-II+ cells after TLR agonist treatment, wild type. Type of assay: cell-based. The settings on record: C57BL/6 mice, 3 method. As to the method: Additionally, in order to identify whether an effect of inhibiting differentiation into dendritic cells is induced in a MyD88-dependent manner, C57BL/6 mice and C57BL/6 MyD88^−/− mice were treated with a TLR agonist in the same manner as the 3 method in Example 1, to induce differentiation, and then a proportion of CD11c^+MHC-II^+ cells was measured. The results are illustrated in FIGS. 5 and 6.

Assay [4] concerns bone marrow cells. Kind of assay: MDSC subtypes by Gr-1, Ly6G and Ly6C expression. Type of assay: cell-based, C57BL/6 mice. From the text: As illustrated in Example 3, it can be seen that the cells, which have been induced by differentiation from bone marrow cells after TLR stimulation according to the 3 method in Example 1, are MDSCs. On the other hand, subtypes of the MDSCs may be divided into monocytic-MDSCs (M-MDSCs) and granulocytic-MDSCs (G-MDSCs). Gr-1^high cells mostly correspond to G-MDSCs, and Gr-1^low cells may be classified as M-MDSCs.
Thus, for MDSCs harvested after performing culture for 6 days with a Gr-1 antibody using the 3 method in Example 1, an expression level of Gr-1 was checked. The results are illustrated in FIGS. 9 and 10.
Furthermore, in order to accurately classify subtypes of MDSCs, their expression patterns were identified using Ly6G and Ly6C antibodies.

For another assay, the system named is Ly6C^+ M-MDSCs. Kind of assay: Ly6C+ M-MDSCs treated with GM-CSF, proportions of CD11c+ cells. The settings on record: Ly6C^+ M-MDSCs of day 6, GM-CSF for 3 days. Type of assay: cell-based. As for the experimental part: Then, GM-CSF was applied in the same manner as in Example 8 and culture was performed for 3 days. Subsequently, proportions of CD11c^+ cells were checked for the respective treatments.
Then, on day 6 of culture, only Ly6C^+ M-MDSCs were collected. Subsequently, GM-CSF was applied in the same manner as in Example 8 and culture was performed for 3 days. Then, proportions of CD11c^+ cells were checked for the respective treatments.

Assay [5] has as its system bone marrow cells. As to the kind of experiment: Differentiation of bone marrow cells with GM-CSF, proportion of CD11c+ cells. Type of assay: cell-based, C57BL/6 mice. The settings on record: for capacity of inhibiting dendritic cells (proportion of CD11c^+ cells): 50 ng/ml, 3 method (initiation of differentiation and day 3), day 6 of culture. As to the method:
Whole bone marrow cells in the femurs were harvested from C57BL/6 mice using a bone marrow harvesting needle. The harvested bone marrow cells were washed with PBS and red blood cells (RBCs) were removed using a red blood cell lysis buffer (Sigma Aldrich). The bone marrow cells were dispensed in a 6-well plate (1×10^6 cells/ml; 2 ml/well) and cultured, under a condition of 5% CO2 and 37° C., in complete RPMI 1640 (c-RPMI 1640) medium supplemented with 100 U/mL of penicillin/streptomycin (Lonza, Basel, Switzerland), 10% fetal bovine serum (Lonza), 50 μM mercaptoethanol (Lonza), 0.1 mM non-essential amino acids (Lonza), and GM-CSF (20 ng/mL). […] On day 3 of culture, the bone marrow cells and 1 ml of c-RPMI 1640 medium were added to each well. On day 6 of culture, the cells were collected and stained with Fluorescein-conjugated CD11c mAb to measure a proportion of CD11c^+ cells. […] In addition, in a case where the 3 method is used, proportions of CD11c^+ cells were checked for respective treatment concentrations of each TLR agonist (TLR2 agonist (Pam3)—1, 10, and 50 ng/ml; TLR3 agonist (Poly I:C)—10, 100, and 500 ng/ml; TLR4 agonist (LPS)—1, 10, and 50 ng/ml; TLR7 agonist (imiquimod)—1, 10, and 50 ng/ml; TLR9 agonist (CPG:ODN)—1, 10, and 50 ng/ml).

Assay [6] relates to bone marrow cells. Kind of assay: Cytokine applied in place of the TLR agonist, formation of M-MDSCs and dendritic cells. Type of assay: cell-based. The settings on record: day 6; for M-MDSCs are formed and differentiation into dendritic cells is inhibited: 3 method. An excerpt:
On day 6 of culture, it was identified whether M-MDSCs and dendritic cells are formed.

The test system of the next assay is M-MDSCs. Kind of assay: Secondary differentiation into dendritic cells of M-MDSCs induced with TLR9 agonist plus IL-6 or IL-6 receptor blocker. The settings on record: GM-CSF 5 days; compared with only TLR9 agonist. Type of assay: cell-based. As to the method:
In order to identify whether the M-MDSCs induced according to respective treatments as described above are secondarily differentiated into dendritic cells, culture was performed for 5 days in the same manner as the method of inducing differentiation into dendritic cells in Example 8.

Assay [7] deals with bone marrow cells. As to the kind of experiment: IL-6 or IL-6 receptor blocker together with TLR9 agonist, proportions of MDSCs and dendritic cells. Type of assay: cell-based. To be noted: applied together with a TLR9 agonist, 3 method, day 6. From the text: In order to evaluate differentiation into M-MDSCs caused by IL-6 and functions of the M-MDSCs, recombinant IL-6 or an IL-6 receptor blocker was applied together with a TLR9 agonist using the 3 method in Example 1, and then the cells were harvested on day 6 of culture. Among the cells harvested according to the respective treatments, proportions of MDSCs and dendritic cells were checked.

For assay [8], the system named is bone marrow cells. Kind of assay: Phenotypic analysis of cells induced by TLR stimulation. It counts as cell-based, C57BL/6 mice. To be noted: 3 method, culture for 6 days. From the text: The results obtained by analyzing phenotypes of cells harvested after treating bone marrow cells with a TLR agonist in the same manner as the 3 method in Example 1 and performing culture for 6 days are illustrated in FIGS. 7 and 8. […] From these expression patterns, it was predictable that the cells induced by differentiation from the bone marrow cells are myeloid-derived suppressor cells (MDSCs).

Assay [9] has as its system bone marrow cells. Kind of assay: TLR9 agonist on bone marrow cells of type I IFN receptor knockout mice. Type of assay: cell-based. The settings on record: 3 method, day 6. As for the experimental part: Finally, in order to accurately check the function of type I IFN, bone marrow cells harvested from wild-type mice and type I IFN receptor knockout mice were treated with a TLR9 agonist using the 3 method in Example 1; and on day 6 of culture, degree of formation of PDCA-1^+ M-MDSCs and dendritic cells was evaluated.

In the case of Pam3CSK4 [TLR2 agonist], in the assay with bone marrow cells [1], the “cytokines induced at early differentiation stages” value is “TNF-α, IL-6, and PGE2”. The IL-6 induction result in the assay on bone marrow cells [1] (as compared with a case of being treated with the TLR9 agonist) was “remarkably induced”. In the assay on bone marrow cells [1], the “IFN-γ, IL-15, IL-1β, TGF-β, IL-4, IL-12p70, IL-10, and FLT2L induction” value is “not induced”. Further, the “Ly6C^int M-MDSCs (X3 cells)” value in the assay with bone marrow cells [2] is “induced”; in the assay with bone marrow cells [4] (Ly6G and Ly6C antibodies), “induced”. In addition, the “proportion of CD11c^+MHC-II^+ cells” value with bone marrow cells [3] is on record as “decreased”. Further, the “Gr-1^low MDSCs” value in the assay on bone marrow cells [4] (3 method, 6 days) is listed as “induced at a high level”. Moreover, the “differentiation into dendritic cells (proportions of CD11c^+ cells)” value in the assay with Ly6C^+ M-MDSCs is recorded as “hardly induced”. In the assay with bone marrow cells [5], the “capacity of inhibiting dendritic cells (proportion of CD11c^+ cells)” value (“capacity of inhibiting dendritic cells” for short) is on record as “strongly induced”.
Take IFN-α: the “M-MDSCs are formed and differentiation into dendritic cells is inhibited” value in the assay on bone marrow cells [6] is recorded as “in a concentration-dependent manner”.
Consider IL-6: recombinant IL-6 protein, for which the “degree of differentiation of M-MDSCs into dendritic cells” value in the assay on M-MDSCs is “remarkably decreased”. In addition, in the assay with bone marrow cells [7], the “differentiation into PDCA-1^+ M-MDSCs” value was “increased” and the “differentiation into dendritic cells” value is recorded as “further decreased”. In the assay on bone marrow cells [6], the “M-MDSCs are formed and differentiation into dendritic cells is inhibited” value was “in a concentration-dependent manner”; the “M-MDSCs having the phenotype CD11c^−CD11b^+Ly6G^− Ly6C^+PDCA-1^−” value is given as “induced in large quantities”.
`CC(C)Cn1cnc2c(N)nc3ccccc3c21` [TLR7 agonist, imiquimod]: in the assay on bone marrow cells [2], the “Ly6C^high M-MDSCs (X4 cells)” value is recorded as “induced”. For the same compound, in the assay with bone marrow cells [8], the “B220, another marker of pDCs” value was “no significant difference” and the “PDCA-1, a marker of plasmacytoid dendritic cells” value is on record as “highly induced”. Further, the “proportion of CD11c^+MHC-II^+ cells” value in the assay with bone marrow cells [3] is recorded as “decreased”. Also, the “Gr-1^high MDSCs” value in the assay on bone marrow cells [4] (3 method, 6 days) is “induced at a high level”. Also, the “Ly6C^high M-MDSCs (X4 cells)” value in the assay on bone marrow cells [4] (Ly6G and Ly6C antibodies) was “induced”. For the same compound, the “capacity of inhibiting dendritic cells” value in the assay with bone marrow cells [5] is given as “strongly induced”.
Consider poly I:C [TLR3 agonist], for which the “inhibition of differentiation into dendritic cells (proportions of CD11c^+ cells for respective treatment concentrations)” value with bone marrow cells [5] (3 method, 1, 10, 50 ng/ml (TLR3 agonist 10, 100, 500 ng/ml)) was “not observed”.
With `CCCCC[C@H](O)/C=C/[C@H]1[C@H](O)CC(=O)[C@@H]1C/C=C\CCCC(=O)O` [PGE2], the “M-MDSCs are formed and differentiation into dendritic cells is inhibited” value in the assay with bone marrow cells [6] was “in a concentration-dependent manner”.
For ODN1826 [TLR9 agonist], in the assay on bone marrow cells [1], the “cytokines induced at early differentiation stages” value is “TNF-α, IL-6, IFN-α, and IFN-β”; the “IFN-γ, IL-15, IL-1β, TGF-β, IL-4, IL-12p70, IL-10, and FLT2L induction” value is “not induced”. Moreover, the “Ly6C^high M-MDSCs (X4 cells)” value in the assay with bone marrow cells [2] is given as “induced”. The “induction of MDSCs” value with bone marrow cells [9] is on record as “not induced”. For the same compound, in the assay on bone marrow cells [8], the “B220, another marker of pDCs” value is reported as “no significant difference” and the “PDCA-1, a marker of plasmacytoid dendritic cells” value is “highly induced”. Moreover, the “proportion of CD11c^+MHC-II^+ cells” value with bone marrow cells [3] is recorded as “decreased”. In addition, the “Gr-1^high MDSCs” value in the assay with bone marrow cells [4] (3 method, 6 days) is recorded as “induced at a high level”. Besides, in the assay with bone marrow cells [4] (Ly6G and Ly6C antibodies), the “Ly6C^high M-MDSCs (X4 cells)” value is on record as “induced”. In the assay with bone marrow cells [5], the “capacity of inhibiting dendritic cells” value is on record as “strongly induced”.
